Test results: US20260258000A1, “THYMIDYLATE SYNTHASE INHIBITORS AND USES THEREOF” (University of Florida Research Foundation, Incorporated, priority 2021, published 2026)
“Also recorded” adds a separate entry of the source.

How the values were obtained:
[1] = biological target: T1, human thymidylate synthase (hTS) (Homo sapiens, UniProt P04818); assay: Tritium based TS catalytic activity assay; type: biochemical; settings: for TS activity (conversion of dUMP): drug 250 μM, 10 μg/mL bacterially expressed TS protein (FIG. 1B); for TS inhibition at decreasing drug concentrations: compared with Pem and MTX controls (FIG. 4C); for inhibition of TS catalytic activity, 19-S series library screen: 250 uM (FIG. 4A)
T1 construct: 6xHis (N); made in house; host or cells: E. coli BL21 (DE3)
T1 sequence (P04818 whole entry): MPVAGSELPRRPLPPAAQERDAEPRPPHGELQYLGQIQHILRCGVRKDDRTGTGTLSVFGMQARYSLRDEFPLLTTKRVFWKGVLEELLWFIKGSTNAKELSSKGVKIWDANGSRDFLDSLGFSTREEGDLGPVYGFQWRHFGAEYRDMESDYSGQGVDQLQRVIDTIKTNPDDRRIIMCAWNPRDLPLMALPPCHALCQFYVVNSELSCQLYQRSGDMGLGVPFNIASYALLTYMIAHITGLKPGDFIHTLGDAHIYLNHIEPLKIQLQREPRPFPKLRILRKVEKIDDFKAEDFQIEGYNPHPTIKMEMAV
Method: The catalytic activity of TS was determined by measuring the release of [31] from [5-3H]dUMP (ViTrax, VT122) resulting from the conversion of dUMP to dTMP as previously described12,33. […] Reactions were performed in 50 mM KH2PO4 (Sigma Aldrich, P0662) at pH 7.2 using 2 μg of purified human TS. Reactions were performed in a final volume of 200 μL with 100 mM β-mercaptoethanol (Sigma Aldrich, M7522), 40 μM dUMP (Sigma Aldrich, D3876), 100 μM 5,10-mTHF, and the [5-3H]dUMP tracer (ViTrax, VT122) accounting for 0.06% of the final dUMP concentration in the reaction. […] Reactions were initiated by the addition of the dUMP substrate and 5,10-mTHF cofactor, then incubated at 37° C. for 30 minutes. […] Reactions were terminated by the addition of 100 μL of ice-cold 20% trichloroacetic acid (Sigma Aldrich, T6399), then excess [5-31-]dUMP was removed by the addition of 200 μL of an albumin-coated activated charcoal solution. The albumin-coated activated charcoal solution was prepared by mixing 10 g of acid-washed activated dextran coated charcoal (Sigma Aldrich, C6241) with 2.5 g of bovine albumin (Sigma Aldrich, A1933) in 100 mL of H2O. The suspension was incubated at room temperature for 30 minutes and then centrifuged for 30 minutes at 10,000×g. […] For all experiments, positive control reactions were performed with no drug representing 100% TS activity, and negative control reactions were performed with no TS enzyme or no 5,10-mTHF substrate representing 0% TS activity. All assays were performed in biological duplicate and technical duplicate. Results were analyzed using GraphPad Prism 8.

MIA PaCa-2 cells = assay: Cell viability (MTS) assay, MIA PaCa-2; type: cell-based; settings: Homo sapiens; MIA PaCa-2, 72-hour treatment, highest concentration 350 μM (FIG. 4E)
Method: (§1) To prepare lysates, 0.5×10^6 PA NC-1 cells were seeded in 100 mm dishes in 10 ml DMEM High glucose and 24 hours later, 5-FU (Sigma) or 19-S were added at the specified concentrations. Cells were harvested after 72 hours and cell pellets were stored at −80° C. For GI50 determination, 3000 MIA PaCa-2 cells. […] After 72 hours, cell viability was assessed by reduction of MTS ((3-4,5-dimethylthiazol-2-yl)-5-(3-carboxymethoxyphenol)-2-(4-sulfophenyl)-2H-tetrazolium) using Cell Titer 96 R Aqueous One Solution Cell Proliferation Assay Kit (Promega), following manufacturer's recommendations. Chemiluminescent output (integration time 1000 ms) was measured on a SpectraMax M3® (Molecular devices). Data were normalized to max/minutes and plotted in GraphPad Prism for GI50 determination. Chemical synthesis details, including characterization of each compound, can be found in the supporting information document associated with this publication.

DHFR = biological target: T2, DHFR (Homo sapiens, UniProt P00374); assay: Absorbance-based DHFR activity assay; type: biochemical; settings: for DHFR inhibition at reduced inhibitor concentrations: compared with Pem and MTX controls (FIG. 4D)
T2 construct: purchased Sigma D6566
T2 sequence (P00374 1-187): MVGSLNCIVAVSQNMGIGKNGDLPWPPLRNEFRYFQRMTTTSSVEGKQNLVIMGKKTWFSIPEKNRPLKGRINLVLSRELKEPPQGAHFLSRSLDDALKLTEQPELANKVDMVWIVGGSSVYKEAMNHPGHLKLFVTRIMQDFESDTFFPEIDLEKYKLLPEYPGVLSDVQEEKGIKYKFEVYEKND
Method: 6 μL NADPH solution and 5 μL of dihydrofolic acid (DHFR substrate) (Sigma, D7006).

human TS = biological target: T3, human TS (Homo sapiens, UniProt P04818); assay: Competitive drug displacement assay (tritium TS assay); type: biochemical; settings: TS pre-incubated with drug; for dUMP conversion with increasing 5,10-mTHF concentration (drug displacement): 5,10-mTHF up to 5×; for dUMP conversion with increasing dUMP concentration (drug displacement): dUMP up to 5×
T3 construct: 6xHis (N); made in house; host or cells: E. coli BL21 (DE3)
T3 sequence (P04818 whole entry): as the sequence (P04818 whole entry) above
Method: For these experiments the TS protein was first incubated with each drug, the reaction was then initiated by addition of 5,10-mTHF and dUMP using different concentrations of either 5,10-mTHF or dUMP to change the substrate:drug ratio. If there was competition between one of the substrates and the drug for the same binding site, increasing the substrate concentration will displace more of the pre-bound drug and shift the equilibrium towards the enzyme: substrate complex, thus allowing the conversion of dUMP to proceed (FIG. 5A).
The competitive drug displacement assay utilized the standard reaction conditions for the tritium based TS catalytic activity assay including 40 μM dUMP (Sigma Aldrich, D3876) with the [5-3H]dUMP tracer (ViTrax, VT122) accounting for 0.06% of the final dUMP concentration and 100 μM 5,10-methylene tetrahydrofolate (defined as 1× dUMP and 1×5,10-mTHF). Concentrations of total dUMP and 5,10-mTHF were then changed relative to these 1× concentrations to concisely indicate the changes in either the substrate or cofactor concentration. […] The remaining components in each 200 μL reaction were consistent in all reactions and included 2 μg of purified human TS in 50 mM KH2PO4 (Sigma Aldrich, P0662) and 100 mM β-mercaptoethanol (Sigma Aldrich, M7522).

BON cells = assay: Cell viability (MTS) assay, BON; type: cell-based; settings: 72 hour drug incubation (FIG. 1C)
CM cells = assay: Cell viability (MTS) assay, CM; type: cell-based; settings: 72 hour drug incubation (FIG. 1C)
[2] = tested on: TS protein expression in PANC-1 cells; assay: Immunoblot analysis of TS expression in PANC-1 cells; type: cell-based; settings: PANC-1 cells treated 72 hours (FIG. 1D)
Method: as §1, with “Data were normalized to max/minutes and plotted in GraphPad Prism for GI50 determination. Chemical synthesis details, including characterization of each compound, can be found in the supporting information document associated with this publication.” left out
Protein lysates were generated using RIPA buffer (Santa Cruz) for 20 minutes on ice, followed by 15 minutes centrifugation at 13,000 rpm, at 4° C. […] Protein was quantified using Bradford Assay (BioRad) following manufacturer's recommendations, standard curves were generated with bovine serum albumin (Fisher).
20 μg of total protein lysate was loaded per lane of 10% Tris Glycine Gel (Invitrogen). […] Signal was detected using West Pico Plus chemiluminescent substrate (Thermo Scientific) following manufacturer's recommendations. […] For protein level quantification relative to loading control, densitometric analysis was performed by ImageJ software.

[3] = tested on: Luc-PANC-1 xenograft tumors; assay: Luc-PANC-1 subcutaneous xenograft tumor model; type: in vivo, NSG mice; settings: 25 mg/kg oral gavage
Method: Luc-PANC-1 (5×106) and Luc-CM (0.5×106) cells were resuspended in 200 ul of PBS and injected subcutaneously (SQ) or intraperitonially (IP) to 6-8-week-old NSG mice respectively. Tumor bearing mice were imaged using Xenogen IVIS® Lumina Bioluminescence Imaging System (Perkin Elmer) every week after cell injection. At 4 weeks, animals were randomized based on slope of luciferase signal and treatment was initiated. […] For all animals body weight was recorded weekly and Luc-PANC-1 tumor volume was measured weekly with a caliper. For scheduled sacrifice experiments, animals were euthanized after 4 weeks of treatment. […] Harvested tumors were excised and weighted, and fixed in alcoholic formalin (67.5% Ethanol, 10% Formaldehyde 37%, 22.5% water) for pathology analysis. Tumor volume was calculated as [volume=0.52 (length×width2)].
From this stock, the exact volume needed for daily in vivo delivery was then formulated into 95% corn oil (Mazola) at 2 different concentrations: 1.25 mg/mi (formulation 1) and 3.125 mg/ml (formulation 2). To determine the volume of solution administered to the mice, 200 μl (maximum volume to be delivered in mice via IP or oral gavage) was divided by 25 g of mouse body weight. Therefore, 8 μl of formulation 1 or 2 multiplied by the weight of the mice were used to reach a dose of 10 or 25 mg/kg of body weight, respectively.
Prior to bioluminescence imaging the region where tumors were located was shaved. Mice were then anesthetized with 2.5% isoflurane in 02 then administered the D-luciferin substrate (150 mg/kg in PBS) by IP injection. Following the injection of the D-luciferin substrate mice were imaged using the Xenogen IVIS® Lumina Bioluminescence Imaging System (Perkin Elmer). The peak of luciferase photon flux was recorded 6 minutes after injection of the D-luciferin substrate. The total photon flux was analyzed and restricted to tumor ROI (region of interest) using Living Image v2.60.1 software (Imaging Systems).

[4] = Maximum tolerated dose (MTD) study; type: in vivo
Description: After 3 treatment cycles, animals rested (no treatment) for one more week before euthanasia. Body weight and physical status of all mice were closely monitored. Tissues were collected and fixed in alcoholic formalin to test for toxicity.

**Q.** For `O=c1[nH]c(=O)n([C@@H]2O[C@H](CO)[C@@H](O)[C@H]2O)cc1F` [FUrd, 5-fluorouridine, reference compound], which “TS activity (conversion of dUMP)” value [1] is on record?
**A.** inactive

**Q.** For `Nc1nc2[nH]cc(CCc3ccc(C(=O)N[C@@H](CCC(=O)O)C(=O)O)cc3)c2c(=O)[nH]1` [Pem, pemetrexed, reference compound], which “TS inhibition at decreasing drug concentrations” value [1] is on record?
**A.** greater TS inhibition than the MTX antifolate

**Q.** What about the GI50 (MIA PaCa-2 cells) of the same compound?
**A.** > 350 µM

**Q.** And the “DHFR inhibition at reduced inhibitor concentrations” value (DHFR)?
**A.** less effective against DHFR

**Q.** And the “dUMP conversion with increasing 5,10-mTHF concentration (drug displacement)” value (human TS)?
**A.** increased the dUMP conversion

**Q.** What about the “dUMP conversion with increasing dUMP concentration (drug displacement)” value (human TS) of the same compound?
**A.** did not increase dUMP conversion

**Q.** With `O=c1[nH]cc(F)c(=O)[nH]1` [Compound 5-FU, 5-fluorouracil, reference compound] as the compound, how does the IC50 (BON cells) read?
**A.** 7.1 µM

**Q.** What about the GI50 (CM cells) of the same compound?
**A.** 14.8 µM

**Q.** What about the “TS protein expression (steady-state TS levels)” value [2] of the same compound?
**A.** induced TS expression

**Q.** With `CN(Cc1cnc2nc(N)nc(N)c2n1)c1ccc(C(=O)N[C@@H](CCC(=O)O)C(=O)O)cc1` [MTX, methotrexate, reference compound] as the compound, how does the GI50 (MIA PaCa-2 cells) read?
**A.** > 350 µM

**Q.** For `CCc1nc(N)nc(N)c1-c1ccc(N(C)Cc2ccc(OC)cc2)c([N+](=O)[O-])c1` [Compound 19-S5], which “inhibition of TS catalytic activity, 19-S series library screen” value [1] is on record?
**A.** inhibited TS activity

**Q.** And the “TS inhibition at decreasing drug concentrations” value ([1]; listed as 19-55)?
**A.** greater TS inhibition than both MTX and Pen

**Q.** And the “TS inhibition at decreasing drug concentrations” value ([1]; listed as 19-85)?
**A.** both strong TS and DHFR inhibition

**Q.** What about the GI50 (MIA PaCa-2 cells) of the same compound?
**A.** 0.2 to 0.84 µM

**Q.** What about the “DHFR inhibition at reduced inhibitor concentrations” value (DHFR) of the same compound?
**A.** both strong TS and DHFR inhibition

**Q.** And the “dUMP conversion with increasing 5,10-mTHF concentration (drug displacement)” value (human TS)?
**A.** increased the amount of dUMP conversion

**Q.** What about the “dUMP conversion with increasing dUMP concentration (drug displacement)” value (human TS) of the same compound?
**A.** the amount of dUMP conversion did not increase

**Q.** For `O=c1[nH]c(=O)n([C@H]2C[C@H](O)[C@@H](CO)O2)cc1F` [FdUrd, 5-fluoro-2′-deoxyuridine, reference compound], which “TS activity (conversion of dUMP)” value [1] is on record?
**A.** reduced conversion of dUMP

**Q.** And the “dUMP conversion with increasing dUMP concentration (drug displacement)” value (human TS)?
**A.** did not show drug displacement

**Q.** For `CCc1nc(N)nc(N)c1-c1ccc(NCCOCCOCCN)c([N+](=O)[O-])c1` [Compound 19-S10], which “inhibition of DHFR activity, 19-S series library screen” value (DHFR; 1 μM (FIG. 4B)) is on record?
**A.** exception

**Q.** Which “inhibition of TS catalytic activity, 19-S series library screen” value [1] does the source give for `CCc1nc(N)nc(N)c1-c1ccc(N(C)Cc2ccc3c(c2)OCO3)c([N+](=O)[O-])c1` [Compound 19-S7] here?
**A.** inhibited TS activity

**Q.** What about the “TS inhibition at decreasing drug concentrations” value [1] of the same compound?
**A.** greater TS inhibition than both MTX and Pen; also recorded: both strong TS and DHFR inhibition

**Q.** And the GI50 (MIA PaCa-2 cells)?
**A.** 0.2 to 0.84 µM

**Q.** And the “adverse effects / body weight” value ([3]; 4 cycles)?
**A.** did not show adverse effects or declines in body weight

**Q.** What about the “tumor progression (photon flux, tumor volume, excised tumor mass)” value ([3]; 4 cycles (FIGS. 7A-7H)) of the same compound?
**A.** inhibited tumor progression

**Q.** What about the mortality ([4]; 50 mg/kg PO, n=3 (FIG. 16B)) of the same compound?
**A.** found dead after 12th (n=1) and 15th (n=2) dose

**Q.** And the MTD ([4]; PO, NSG mice (FIGS. 16A-16B))?
**A.** 25 mg/kg

**Q.** What about the “DHFR inhibition at reduced inhibitor concentrations” value (DHFR) of the same compound?
**A.** both strong TS and DHFR inhibition

**Q.** What about the “dUMP conversion with increasing 5,10-mTHF concentration (drug displacement)” value (human TS) of the same compound?
**A.** increased the amount of dUMP conversion

**Q.** What about the “dUMP conversion with increasing dUMP concentration (drug displacement)” value (human TS) of the same compound?
**A.** the amount of dUMP conversion did not increase
